Measurements as given in ChEMBL document CHEMBL1921784, “Benzobistriazinones and related heterocyclic ring systems as potent, orally bioavailable positive allosteric AMPA receptor modulators” (Bioorg Med Chem Lett, 2011).
Active and inactive are the calls of the source. The calls are words filed in the database; no cut-off is given here.

Experiments:
Rattus norvegicus [1] = species: Rattus norvegicus; assay: Positive allosteric modulation of AMPA receptor in Sprague-Dawley rat embryonic hippocampal neuron assessed as concentration required to double the steady-state glutamate-induced current by patch-clamp assay; conditions: Hippocampus
Rattus norvegicus [2] = assay: Positive allosteric modulation of AMPA receptor in Sprague-Dawley rat adult hippocampus dentate gyrus assessed as increase in field excitatory postsynaptic potential amplitude at 5 mg/kg, ip infused for 30 mins relative to baseline; type: functional
Rattus norvegicus [3] = assay: Positive allosteric modulation of AMPA receptor in Sprague-Dawley rat adult hippocampus dentate gyrus assessed as increase in field excitatory postsynaptic potential amplitude at 20 mg/kg, ip infused for 30 mins relative to baseline; type: functional; conditions: route intraperitoneal
Rattus norvegicus [4] = assay: Positive allosteric modulation of AMPA receptor in Sprague-Dawley rat adult hippocampus dentate gyrus assessed as increase in field excitatory postsynaptic potential amplitude at 10 mg/kg, ip infused for 30 mins relative to baseline; type: functional; conditions: route intraperitoneal
Rattus norvegicus [5] = assay: Positive allosteric modulation of AMPA receptor in Sprague-Dawley rat adult hippocampus dentate gyrus assessed as increase in field excitatory postsynaptic potential amplitude at 3 mg/kg, ip infused for 30 mins relative to baseline; type: functional; conditions: route intraperitoneal
[6] = Half life in dog; type: ADME, organism-based, Canis lupus familiaris; conditions: in vivo
[7] = Half life in rat; type: ADME, organism-based; conditions: in vivo
[8] = Oral bioavailability in rat; type: ADME, organism-based; conditions: in vivo
Rattus norvegicus [9] = assay: Positive allosteric modulation of AMPA receptor in Sprague-Dawley rat adult hippocampus dentate gyrus assessed as increase in field excitatory postsynaptic potential amplitude at 1 mg/kg, ip infused for 30 mins relative to baseline; type: functional; conditions: route intraperitoneal
[10] = Half life in cynomolgus monkey; type: ADME, organism-based, Macaca fascicularis; conditions: in vivo
[11] = Oral bioavailability in cynomolgus monkey; type: ADME, organism-based, Macaca fascicularis; conditions: in vivo

Compound	CD (Rattus norvegicus [1])	Activity (Rattus norvegicus [2]; route intraperitoneal)	other results
C[C@H](Cn1ncnn1)n1cnc2cc3c(=O)n([C@H](C)Cn4ncnn4)cnc3cc2c1=O	0.03 µM	0%	–
C[C@H](Cn1nccn1)n1nnc2cc3c(=O)n([C@H](C)Cn4nccn4)nnc3cc2c1=O	0.4 µM	9%	–
C[C@H](Cn1nccn1)n1cnc2cc3c(=O)n(C)nnc3cc2c1=O	–	–	Activity (Rattus norvegicus [3]): 30%
C[C@H](Cn1cc(C#N)cn1)n1cnc2cc3c(=O)n(C4CC4)nnc3cc2c1=O	–	2%	–
C[C@H](Cn1ncnn1)n1cnc2cc3c(=O)n(CC(F)(F)F)nnc3cc2c1=O	–	–	Activity (Rattus norvegicus [4]): 7%
C[C@H](Cn1cccn1)n1cnc2cc3c(=O)n(C4CC4)nnc3cc2c1=O	–	–	Activity (Rattus norvegicus [4]): 20%
C[C@H](Cn1ncnn1)n1cnc2cc3c(=O)n(CC(F)F)nnc3cc2c1=O	–	–	Activity (Rattus norvegicus [3]): 16%
C[C@H](Cn1ncc(C#N)n1)n1cnc2cc3c(=O)n(C4CC4)nnc3cc2c1=O	–	–	Activity (Rattus norvegicus [4]): 3%
C#CCn1nnc2cc3c(=O)n([C@H](C)Cn4cnnn4)cnc3cc2c1=O	0.25 µM	1%	–
C#C[C@H](Cc1cccc(F)c1)n1nnc2cc3c(=O)n(C4CC4)nnc3cc2c1=O	0.45 µM	1%	–
C[C@H](Cn1ncnn1)n1nnc2cc3c(=O)n([C@H](C)Cn4ncnn4)nnc3cc2c1=O	0.016 µM	–	Activity (Rattus norvegicus [9]): 59%
CC#CCn1nnc2cc3c(=O)n([C@H](C)Cn4ncnn4)nnc3cc2c1=O	–	43%	–
C=CCn1nnc2cc3c(=O)n([C@H](C)Cn4ncnn4)nnc3cc2c1=O	–	12%	–
C[C@H](Cn1nccn1)n1cnc2cc3c(=O)n(C4CC4)nnc3cc2c1=O	–	–	Activity (Rattus norvegicus [4]): 9%
C[C@H](Cn1ncnn1)n1nnc2cc3c(cc2c1=O)OCN(C1CC1)C3=O	–	–	half-life [7]: 0.27 h
C[C@H](Cn1ncnn1)n1cnc2cc3c(=O)n([C@H](C)Cn4ncnn4)nnc3cc2c1=O	0.008 µM	–	Activity (Rattus norvegicus [9]): 43%
C[C@H](Cn1nccn1)n1nnc2cc3c(=O)n([C@H](C)Cn4ncnn4)nnc3cc2c1=O	0.07 µM	–	Activity (Rattus norvegicus [5]): 26%
C[C@H](Cn1ccnn1)n1cnc2cc3c(=O)n(C)nnc3cc2c1=O	–	–	Activity (Rattus norvegicus [3]): 5%
C[C@H](Cn1ncnn1)n1cnc2cc3c(=O)n(C)nnc3cc2c1=O	–	63%	–
C[C@H](Cn1cccn1)n1cnc2cc3c(=O)n([C@H](C)Cn4cccn4)cnc3cc2c1=O	0.09 µM	2%	–
COCCn1nnc2cc3c(=O)n([C@H](C)Cn4ncnn4)nnc3cc2c1=O	–	34%	–
C[C@H](Cn1ncnn1)n1cnc2cc3c(=O)n(C4CC4)cnc3cc2c1=O	1.4 µM	2%	–
C[C@H](Cn1ncnn1)n1cnc2cc3c(=O)n([C@H](C)Cn4cnnn4)nnc3cc2c1=O	0.02 µM	1%	–
C#CCn1nnc2cc3c(=O)n([C@H](C)Cn4ncnn4)cnc3cc2c1=O	0.5 µM	11%	–
O=c1c2cc3nnn(C4CC4)c(=O)c3cc2ncn1CCn1ncnn1	–	7%	–
C[C@H](Cn1ncnn1)n1cnc2cc3c(=O)n(CCF)nnc3cc2c1=O	–	–	Activity (Rattus norvegicus [4]): 32%
CC(C)n1nnc2cc3c(=O)n([C@H](C)Cn4ncnn4)nnc3cc2c1=O	0.44 µM	26%	–
O=c1c2cc3nnn(C4CC4)c(=O)c3cc2nnn1CCn1ncnn1	–	1%	–
C#C[C@H](Cn1ncnn1)n1nnc2cc3c(=O)n(C4CC4)nnc3cc2c1=O	–	4%	–
C[C@H](Cn1ncc(C#N)n1)n1nnc2cc3c(=O)n(C4CC4)nnc3cc2c1=O	–	17%	–

Second part, led by results:

CD (Rattus norvegicus [1])	Compound	Activity (Rattus norvegicus [2]; route intraperitoneal)	other results
0.3 µM	CCn1nnc2cc3c(=O)n([C@H](C)Cn4ncnn4)nnc3cc2c1=O	34%	–
0.7 µM	C[C@H](CNS(C)(=O)=O)n1nnc2cc3c(=O)n(C4CC4)nnc3cc2c1=O	–	Activity (Rattus norvegicus [2]): inactive
0.06 µM	C[C@H](Cn1ccnn1)n1nnc2cc3c(=O)n([C@H](C)Cn4ccnn4)nnc3cc2c1=O	–	Activity (Rattus norvegicus [5]): 0%
0.6 µM	C[C@H](Cn1ncnn1)n1cnc2cc3c(=O)n(C4CC4)nnc3cc2c1=O	33%	half-life [6]: 4.8 h; half-life [7]: 1.6 h; bioavailability [8]: 100%
0.08 µM	C[C@H](Cn1cnnn1)n1nnc2cc3c(=O)n(C)nnc3cc2c1=O	19%	–
3.1 µM	Cc1nnn(C[C@@H](C)n2nnc3cc4c(=O)n(C5CC5)nnc4cc3c2=O)n1	7%	–
0.07 µM	C[C@H](Cn1cnnn1)n1cnc2cc3c(=O)n(C4CC4)nnc3cc2c1=O	2%	–
0.28 µM	C[C@H](Cn1ncnn1)n1nnc2cc3c(=O)n(C)nnc3cc2c1=O	46%	–
0.28 µM	C[C@H](Cn1ncnn1)n1nnc2cc3c(=O)n(C4CC4)nnc3cc2c1=O	37%	half-life [10]: 9.5 h; half-life [6]: 3 h; half-life [7]: 1.7 h; bioavailability [8]: 100%; bioavailability [11]: 100%
0.57 µM	C#CCn1nnc2cc3c(=O)n([C@H](C)Cn4ncnn4)nnc3cc2c1=O	20%	–
1 µM	C[C@H](Cn1ncnn1)n1nnc2cc3c(=O)n(C4CC4)cnc3cc2c1=O	16%	–
0.37 µM	C[C@H](Cn1ccnn1)n1nnc2cc3c(=O)n(C4CC4)nnc3cc2c1=O	–	Activity (Rattus norvegicus [4]): 24%
2.1 µM	C[C@H](Cn1nccn1)n1nnc2cc3c(=O)n(C)nnc3cc2c1=O	7%	–
1.3 µM	C[C@H](Cn1nccn1)n1nnc2cc3c(=O)n(C4CC4)nnc3cc2c1=O	–	Activity (Rattus norvegicus [4]): 12%
0.09 µM	C[C@H](Cn1ccnn1)n1nnc2cc3c(=O)n(C)nnc3cc2c1=O	7%	–
1.1 µM	C[C@H](Cn1cncn1)n1nnc2cc3c(=O)n(C4CC4)nnc3cc2c1=O	7%	–
0.25 µM	Cc1nnnn1C[C@@H](C)n1nnc2cc3c(=O)n(C4CC4)nnc3cc2c1=O	8%	–
0.07 µM	C[C@H](Cn1cnnn1)n1nnc2cc3c(=O)n(C4CC4)nnc3cc2c1=O	11%	–
